Measurements taken from the NIST ThermoML archive (doi:10.1016/j.jct.2016.08.008).
Numbers after ± are expanded uncertainties.

Key:
[1] = activity coefficient (dimensionless); of the first substance listed, at infinite dilution; xn = mol fraction of the nth substance listed; conditions: 101.33 kPa, Liquid, Chromatography, x1 = 0
[2] = for viscosity / mass density: 101.33 kPa, Liquid; for viscosity: Falling or rolling sphere viscometry; for mass density: Vibrating tube method
[3] = Molar enthalpy of transition or fusion; conditions: Crystal; DSC

Cc1cccc(C)c1 [1,3-dimethylbenzene] + CCCCCCCCCCCCn1cc[n+](C)c1.O=S(=O)([N-]S(=O)(=O)C(F)(F)F)C(F)(F)F
activity coefficient ([1]; 318.15 K): 0.874 ± 0.056
activity coefficient ([1]; 328.15 K): 0.918 ± 0.058
activity coefficient ([1]; 338.15 K): 0.96 ± 0.06
activity coefficient ([1]; 348.15 K): 1 ± 0.06
activity coefficient ([1]; 358.15 K): 1.04 ± 0.07
activity coefficient ([1]; 368.15 K): 1.09 ± 0.07

CC(C)O [propan-2-ol] + CCCCCCCCCCCCn1cc[n+](C)c1.O=S(=O)([N-]S(=O)(=O)C(F)(F)F)C(F)(F)F
activity coefficient ([1]; 318.15 K): 1.34 ± 0.09
activity coefficient ([1]; 328.15 K): 1.26 ± 0.08
activity coefficient ([1]; 338.15 K): 1.18 ± 0.08
activity coefficient ([1]; 348.15 K): 1.12 ± 0.07
activity coefficient ([1]; 358.15 K): 1.07 ± 0.07
activity coefficient ([1]; 368.15 K): 1.02 ± 0.06

CCO [ethanol] + CCCCCCCCCCCCn1cc[n+](C)c1.O=S(=O)([N-]S(=O)(=O)C(F)(F)F)C(F)(F)F
activity coefficient ([1]; 318.15 K): 1.38 ± 0.09
activity coefficient ([1]; 328.15 K): 1.3 ± 0.08
activity coefficient ([1]; 338.15 K): 1.23 ± 0.08
activity coefficient ([1]; 348.15 K): 1.17 ± 0.07
activity coefficient ([1]; 358.15 K): 1.11 ± 0.07
activity coefficient ([1]; 368.15 K): 1.06 ± 0.07

CCCC=O [butanal] + CCCCCCCCCCCCn1cc[n+](C)c1.O=S(=O)([N-]S(=O)(=O)C(F)(F)F)C(F)(F)F
activity coefficient ([1]; 318.15 K): 0.464 ± 0.036
activity coefficient ([1]; 328.15 K): 0.486 ± 0.037
activity coefficient ([1]; 338.15 K): 0.51 ± 0.038
activity coefficient ([1]; 348.15 K): 0.531 ± 0.039
activity coefficient ([1]; 358.15 K): 0.554 ± 0.04
activity coefficient ([1]; 368.15 K): 0.575 ± 0.041

CC(C)c1ccccc1 [isopropylbenzene] + CCCCCCCCCCCCn1cc[n+](C)c1.O=S(=O)([N-]S(=O)(=O)C(F)(F)F)C(F)(F)F
activity coefficient ([1]; 318.15 K): 1.15 ± 0.07
activity coefficient ([1]; 328.15 K): 1.2 ± 0.08
activity coefficient ([1]; 338.15 K): 1.24 ± 0.08
activity coefficient ([1]; 348.15 K): 1.28 ± 0.08
activity coefficient ([1]; 358.15 K): 1.32 ± 0.09
activity coefficient ([1]; 368.15 K): 1.36 ± 0.09

C#CCCCCC [1-heptyne] + CCCCCCCCCCCCn1cc[n+](C)c1.O=S(=O)([N-]S(=O)(=O)C(F)(F)F)C(F)(F)F
activity coefficient ([1]; 318.15 K): 1.47 ± 0.1
activity coefficient ([1]; 328.15 K): 1.53 ± 0.1
activity coefficient ([1]; 338.15 K): 1.59 ± 0.11
activity coefficient ([1]; 348.15 K): 1.65 ± 0.11
activity coefficient ([1]; 358.15 K): 1.7 ± 0.11
activity coefficient ([1]; 368.15 K): 1.76 ± 0.12

CCC(C)(C)OC [2-methoxy-2-methylbutane] + CCCCCCCCCCCCn1cc[n+](C)c1.O=S(=O)([N-]S(=O)(=O)C(F)(F)F)C(F)(F)F
activity coefficient ([1]; 318.15 K): 1.11 ± 0.07
activity coefficient ([1]; 328.15 K): 1.17 ± 0.07
activity coefficient ([1]; 338.15 K): 1.23 ± 0.08
activity coefficient ([1]; 348.15 K): 1.29 ± 0.08
activity coefficient ([1]; 358.15 K): 1.35 ± 0.09
activity coefficient ([1]; 368.15 K): 1.4 ± 0.09

CC1CCCCC1 [methylcyclohexane] + CCCCCCCCCCCCn1cc[n+](C)c1.O=S(=O)([N-]S(=O)(=O)C(F)(F)F)C(F)(F)F
activity coefficient ([1]; 318.15 K): 2.42 ± 0.16
activity coefficient ([1]; 328.15 K): 2.46 ± 0.17
activity coefficient ([1]; 338.15 K): 2.49 ± 0.17
activity coefficient ([1]; 348.15 K): 2.52 ± 0.17
activity coefficient ([1]; 358.15 K): 2.55 ± 0.17
activity coefficient ([1]; 368.15 K): 2.58 ± 0.18

C=CCCCCCCCC [1-decene] + CCCCCCCCCCCCn1cc[n+](C)c1.O=S(=O)([N-]S(=O)(=O)C(F)(F)F)C(F)(F)F
activity coefficient ([1]; 318.15 K): 4.18 ± 0.28
activity coefficient ([1]; 328.15 K): 4.27 ± 0.29
activity coefficient ([1]; 338.15 K): 4.36 ± 0.3
activity coefficient ([1]; 348.15 K): 4.44 ± 0.3
activity coefficient ([1]; 358.15 K): 4.52 ± 0.31
activity coefficient ([1]; 368.15 K): 4.6 ± 0.31

CCCC(C)=O [pentan-2-one] + CCCCCCCCCCCCn1cc[n+](C)c1.O=S(=O)([N-]S(=O)(=O)C(F)(F)F)C(F)(F)F
activity coefficient ([1]; 318.15 K): 0.421 ± 0.035
activity coefficient ([1]; 328.15 K): 0.445 ± 0.036
activity coefficient ([1]; 338.15 K): 0.468 ± 0.037
activity coefficient ([1]; 348.15 K): 0.492 ± 0.037
activity coefficient ([1]; 358.15 K): 0.516 ± 0.038
activity coefficient ([1]; 368.15 K): 0.539 ± 0.039

C=Cc1ccccc1 [styrene] + CCCCCCCCCCCCn1cc[n+](C)c1.O=S(=O)([N-]S(=O)(=O)C(F)(F)F)C(F)(F)F
activity coefficient ([1]; 318.15 K): 0.632 ± 0.044
activity coefficient ([1]; 328.15 K): 0.666 ± 0.045
activity coefficient ([1]; 338.15 K): 0.702 ± 0.047
activity coefficient ([1]; 348.15 K): 0.736 ± 0.049
activity coefficient ([1]; 358.15 K): 0.771 ± 0.05
activity coefficient ([1]; 368.15 K): 0.804 ± 0.052

C=C(C)c1ccccc1 [(1-methylethenyl)benzene] + CCCCCCCCCCCCn1cc[n+](C)c1.O=S(=O)([N-]S(=O)(=O)C(F)(F)F)C(F)(F)F
activity coefficient ([1]; 318.15 K): 0.79 ± 0.05
activity coefficient ([1]; 328.15 K): 0.842 ± 0.054
activity coefficient ([1]; 338.15 K): 0.896 ± 0.057
activity coefficient ([1]; 348.15 K): 0.949 ± 0.06
activity coefficient ([1]; 358.15 K): 1 ± 0.06
activity coefficient ([1]; 368.15 K): 1.05 ± 0.07

CC(C)CC(C)(C)C [2,2,4-trimethylpentane] + CCCCCCCCCCCCn1cc[n+](C)c1.O=S(=O)([N-]S(=O)(=O)C(F)(F)F)C(F)(F)F
activity coefficient ([1]; 318.15 K): 3.59 ± 0.24
activity coefficient ([1]; 328.15 K): 3.66 ± 0.25
activity coefficient ([1]; 338.15 K): 3.72 ± 0.25
activity coefficient ([1]; 348.15 K): 3.79 ± 0.26
activity coefficient ([1]; 358.15 K): 3.85 ± 0.26
activity coefficient ([1]; 368.15 K): 3.91 ± 0.27

C1COCCO1 [1,4-dioxane] + CCCCCCCCCCCCn1cc[n+](C)c1.O=S(=O)([N-]S(=O)(=O)C(F)(F)F)C(F)(F)F
activity coefficient ([1]; 318.15 K): 0.474 ± 0.037
activity coefficient ([1]; 328.15 K): 0.499 ± 0.038
activity coefficient ([1]; 338.15 K): 0.524 ± 0.039
activity coefficient ([1]; 348.15 K): 0.548 ± 0.04
activity coefficient ([1]; 358.15 K): 0.572 ± 0.041
activity coefficient ([1]; 368.15 K): 0.597 ± 0.042

C#CCCC [1-pentyne] + CCCCCCCCCCCCn1cc[n+](C)c1.O=S(=O)([N-]S(=O)(=O)C(F)(F)F)C(F)(F)F
activity coefficient ([1]; 318.15 K): 1.07 ± 0.07
activity coefficient ([1]; 328.15 K): 1.11 ± 0.07
activity coefficient ([1]; 338.15 K): 1.16 ± 0.07
activity coefficient ([1]; 348.15 K): 1.2 ± 0.08
activity coefficient ([1]; 358.15 K): 1.24 ± 0.08
activity coefficient ([1]; 368.15 K): 1.28 ± 0.08

C=CCCCCC [1-heptene] + CCCCCCCCCCCCn1cc[n+](C)c1.O=S(=O)([N-]S(=O)(=O)C(F)(F)F)C(F)(F)F
activity coefficient ([1]; 318.15 K): 2.56 ± 0.17
activity coefficient ([1]; 328.15 K): 2.62 ± 0.18
activity coefficient ([1]; 338.15 K): 2.68 ± 0.18
activity coefficient ([1]; 348.15 K): 2.74 ± 0.19
activity coefficient ([1]; 358.15 K): 2.8 ± 0.19
activity coefficient ([1]; 368.15 K): 2.85 ± 0.19

CCOC(C)(C)C [2-ethoxy-2-methylpropane] + CCCCCCCCCCCCn1cc[n+](C)c1.O=S(=O)([N-]S(=O)(=O)C(F)(F)F)C(F)(F)F
activity coefficient ([1]; 318.15 K): 1.55 ± 0.1
activity coefficient ([1]; 328.15 K): 1.62 ± 0.11
activity coefficient ([1]; 338.15 K): 1.69 ± 0.11
activity coefficient ([1]; 348.15 K): 1.75 ± 0.12
activity coefficient ([1]; 358.15 K): 1.82 ± 0.12
activity coefficient ([1]; 368.15 K): 1.88 ± 0.13

CCCCCCCCCCCCn1cc[n+](C)c1.O=S(=O)([N-]S(=O)(=O)C(F)(F)F)C(F)(F)F
viscosity ([2]; 298.15 K): 125 ± 4 mPa·s
mass density ([2]; 298.15 K): 1242.9 ± 2.9 kg/m3
mass density ([2]; 303.15 K): 1238.8 ± 2.9 kg/m3
viscosity ([2]; 308.15 K): 76.7 ± 1.6 mPa·s
mass density ([2]; 308.15 K): 1234.6 ± 2.9 kg/m3
mass density ([2]; 313.15 K): 1230.4 ± 2.9 kg/m3
viscosity ([2]; 318.15 K): 52.7 ± 0.9 mPa·s
mass density ([2]; 318.15 K): 1226.2 ± 2.9 kg/m3
mass density ([2]; 323.15 K): 1222 ± 2.9 kg/m3
viscosity ([2]; 328.15 K): 37 ± 0.6 mPa·s
mass density ([2]; 328.15 K): 1217.8 ± 2.9 kg/m3
mass density ([2]; 333.15 K): 1213.6 ± 2.9 kg/m3
viscosity ([2]; 338.15 K): 26.6 ± 0.5 mPa·s
mass density ([2]; 338.15 K): 1209.5 ± 2.9 kg/m3
mass density ([2]; 343.15 K): 1205.3 ± 2.9 kg/m3
viscosity ([2]; 348.15 K): 19.5 ± 0.3 mPa·s
mass density ([2]; 348.15 K): 1201.2 ± 2.9 kg/m3
mass density ([2]; 353.15 K): 1197.1 ± 2.9 kg/m3
viscosity ([2]; 358.15 K): 14.7 ± 0.3 mPa·s
mass density ([2]; 358.15 K): 1193 ± 2.8 kg/m3
mass density ([2]; 363.15 K): 1188.9 ± 2.8 kg/m3
viscosity ([2]; 368.15 K): 11.4 ± 0.2 mPa·s
mass density ([2]; 368.15 K): 1184.9 ± 2.8 kg/m3
Normal melting temperature ([2]; Crystal, DTA): 19.2 ± 0.4 °C
Molar enthalpy of transition or fusion [3]: 8.6 ± 0.287 kcal/mol

COC(C)(C)C [2-methoxy-2-methylpropane] + CCCCCCCCCCCCn1cc[n+](C)c1.O=S(=O)([N-]S(=O)(=O)C(F)(F)F)C(F)(F)F
activity coefficient ([1]; 318.15 K): 0.93 ± 0.059
activity coefficient ([1]; 328.15 K): 0.985 ± 0.062
activity coefficient ([1]; 338.15 K): 1.04 ± 0.07
activity coefficient ([1]; 348.15 K): 1.09 ± 0.07
activity coefficient ([1]; 358.15 K): 1.14 ± 0.07
activity coefficient ([1]; 368.15 K): 1.2 ± 0.08

CCC(C)(C)C [2,2-dimethylbutane] + CCCCCCCCCCCCn1cc[n+](C)c1.O=S(=O)([N-]S(=O)(=O)C(F)(F)F)C(F)(F)F
activity coefficient ([1]; 318.15 K): 2.83 ± 0.19
activity coefficient ([1]; 328.15 K): 2.89 ± 0.2
activity coefficient ([1]; 338.15 K): 2.95 ± 0.2
activity coefficient ([1]; 348.15 K): 3 ± 0.2
activity coefficient ([1]; 358.15 K): 3.05 ± 0.21
activity coefficient ([1]; 368.15 K): 3.1 ± 0.21
